Test results published in patent US3935309A, “Synergistic combinations of phosphonomycin and bacteriostatic agents” (Merck & Co., Inc., priority 1974, dated 1976).
Where “and” joins values, the source holds several entries; their conditions need not be identical. Equal entries are not always repeated.

Tests used:
pathogenic bacteria = assay: in vitro combination tests with various pathogens (general description); format: cell-based
Excerpt: Other experimental results have shown that novobiocin, chlortetracycline and sulfisoxazole are potentiated when combined with phosphonomycin and tested with various strains of pathogenic bacteria.

[1] = system: Streptococcus pyogenes 3009; assay: Combined antibiotic therapy of experimental infection in mice (Example 5); format: in vivo, mice infected with Streptococcus pyogenes 3009; settings: 6 LD50
Excerpt: (§1) For example, using Escherichia coli 2017 as the infecting agent, sodium phosphonomycin was titrated alone and in the presence 5 and also in the presence of 0.5γtetracycline, while tetracycline was titrated alone and in the presence of 50γ, and also in the presence of 5γof sodium phosphonomycin. The two drugs were given by the subcutaneous route at separate sites on the ventral surface of the mouse. Such therapy was given only at the time of infection for the Escherichia coli and Pseudomonas aeruginosa tests but both at the time of infection and 6 hours later for all other tests. Infection was given intraperitoneally using broth suspensions of the test organism.

[2] = system: Klebsiella pneumoniae "B"; assay: as above; format: in vivo, mice infected with Klebsiella pneumoniae "B"; settings: 7 LD50
Excerpt: as §1

Streptococcus faecalis [3] = assay: MIC by two-fold serial broth dilution, alone and in combination (Example 1); format: cell-based; settings: 2nd substance novobiocin; MIC/2 instead of ≤ MIC/4
Pseudomonas stutzeri = assay: as above; format: cell-based
Method: (§2) The MIC (minimum inhibitory concentration) of phosphonomycin and each of the other antibiotics by itself was determined before the combination synergy experiment was begun, as follows: 2 ml. of a double strength solution in sterile distilled water of the highest strength to be tested (usually 1000γ) was added to a tube of double strength nutrient broth (NB) and mixed thoroughly. Two-fold serial dilutions were then made by transferring 2 ml. to the next tube (1 × NB) and so on for approximately 12 tubes. The tubes were inoculated with one drop each of a 1:50 dilution of a culture adjusted to a Lumetron 60 reading in NB + 0.2% yeast extract so as to provide a concentration of cells of approximately 25,000/ml. The tubes were then incubated at 37°C. and examined for growth at 24, 48 and 72 hours.
(§3) In the combination experiment, the MIC value obtained as described above was used as approximately the midpoint of the range to be tested for each of the two antibiotics of the combination. In a manner similar to the above, two-fold dilutions of the first substance in the combination were made except that 1.8 ml. volumes were used and a 2.2 × strength solution of both the antibiotic and the NB were made. The second antibiotic of the combination was added to duplicate rows of serial dilutions of the first substance as follows: 0.2 ml. in NB of a [formula] and a [formula] respectively, of the second substance was added to each tube in a row of serial dilutions of the first antibiotic. The final concentration that resulted enabled the determination of the effect of both MIC/4 and MIC/8 of each substance in the presence of from approximately 32 MIC to [formula] of the other. Inocula were added as in the initial single MIC experiment.

Klebsiella pneumoniae = assay: as above; format: cell-based
Method: as §2, §3

Staphylococcus aureus [4] = assay: as above; format: cell-based
Method: as §2, §3

Streptococcus faecalis [5] = assay: as above; format: cell-based
Method: as §2, §3

Pseudomonas aeruginosa = assay: as above; format: cell-based
Method: as §2, §3

Proteus vulgaris = assay: as above; format: cell-based
Method: as §2, §3

[6] = system: test organisms of Example 1; assay: Summary of the twelve combination synergy tests (Example 1); format: cell-based
Method: as §2
In the combination experiment, the MIC value obtained as described above was used as approximately the midpoint of the range to be tested for each of the two antibiotics of the combination. In a manner similar to the above, two-fold dilutions of the first substance in the combination were made except that 1.8 ml. volumes were used and a 2.2 × strength solution of both the antibiotic and the NB were made. […]

Staphylococcus aureus [7] = assay: criss-cross MIC method in nutrient broth (Example 2); format: cell-based; settings: 2nd substance chloramphenicol (CLM)
Method: This method involved the simultaneous determination of the MIC (minimum inhibitory concentration) of each member of a pair of antibiotics and of combinations of the two in nutrient broth (NB) containing 0.2% yeast extract (YE). Serial two-fold dilutions were made throughout the experiment, and the starting inoculum consisted of approximately 25,000 cells/ml. of Staphylococcus aureus. Incubation was at 37°C. for 24 hours. Identical experiments were performed on two different days.

[8] = system: Pseudomonas aeruginosa 3210; assay: Combined antibiotic therapy of experimental infection in mice (Example 5); format: in vivo, mice infected with Pseudomonas aeruginosa 3210; settings: 10 LD50
Excerpt: as §1

Escherichia coli 2017 = assay: Combined antibiotic therapy of Escherichia coli infection in mice (Example 5); format: in vivo, mice infected with Escherichia coli 2017
Excerpt: as §1

[9] = alone, therapy at 0 and 6 hours, phosphonomycin as sodium salt
[10] = phosphonomycin titrated, novobiocin constant 100
[11] = phosphonomycin titrated, novobiocin constant 1000
[12] = chloramphenicol repeat test, 7 LD50, phosphonomycin titrated, chloramphenicol constant 5
[13] = chloramphenicol repeat test, 7 LD50, phosphonomycin titrated, chloramphenicol constant 50
[14] = chloramphenicol test 1, 9 LD50, phosphonomycin titrated, chloramphenicol constant 3
[15] = chloramphenicol test 1, 9 LD50, phosphonomycin titrated, chloramphenicol constant 30
[16] = tetracycline repeat test, 7 LD50, phosphonomycin titrated, tetracycline constant 1
[17] = tetracycline repeat test, 7 LD50, phosphonomycin titrated, tetracycline constant 10
[18] = tetracycline test 1, 9 LD50, alone
[19] = tetracycline test 1, 9 LD50, phosphonomycin titrated, tetracycline constant 0.5
[20] = tetracycline test 1, 9 LD50, phosphonomycin titrated, tetracycline constant 5

Structure (SMILES): C[C@@H]1O[C@@H]1P(=O)(O)O [Phosphonomycin, (-) (cis-1,2-epoxypropyl)phosphonic acid]
- tests in which phosphonomycin potentiated the effect of chloramphenicol (pathogenic bacteria; almost 200 pathogenic bacteria, about 15,000 individual tests): 88%
- antagonism (pathogenic bacteria; between phosphonomycin and each of chloramphenicol and erythromycin): no antagonism
- antagonism (pathogenic bacteria; various tests with human pathogens): does not exhibit any antagonism
- synergism (pathogenic bacteria; with chloramphenicol, erythromycin, tetracyclines, novobiocin and sulfisoxazole, inhibition at one quarter or less of MIC of each): acts synergistically
- % ED50 ([1]; alone): 100%
- % ED50, Combined % ([1]; alone): 100%
- s.c. ED50 [1, 9]: 1400 µg
- % ED50 ([1]; tetracycline titrated, phosphonomycin constant 500): 64%
- % ED50 ([1]; tetracycline titrated, phosphonomycin constant 1000): 71%
- % ED50 ([2]; alone): 100%
- s.c. ED50 [2, 9]: 2130 µg
- % ED50 [2, 10]: 52%
- s.c. ED50 [2, 10]: 1110 µg
- % ED50 [2, 11]: 14%
- s.c. ED50 [2, 11]: 298 µg
- Phosphonomycin MIC in presence of 2nd substance (Streptococcus faecalis [3]): 24 µg/mL
- Phosphonomycin MIC in presence of ≤ MIC/4 of 2nd substance (Pseudomonas stutzeri; 2nd substance novobiocin): 16
- MIC (Pseudomonas stutzeri; Stutzerimonas stutzeri, read-out: Phosphonomycin MIC): > 220 µg/mL
- Phosphonomycin MIC in presence of ≤ MIC/4 of 2nd substance (Klebsiella pneumoniae; 2nd substance novobiocin): 5.8
- MIC (Klebsiella pneumoniae; Klebsiella pneumoniae, alone, read-out: Phosphonomycin MIC): 750 µg/mL
- Phosphonomycin MIC in presence of ≤ MIC/4 of 2nd substance (Staphylococcus aureus [4]; 2nd substance erythromycin): 24
- Phosphonomycin MIC in presence of ≤ MIC/4 of 2nd substance (Staphylococcus aureus [4]; 2nd substance novobiocin): 48
- Phosphonomycin MIC in presence of ≤ MIC/4 of 2nd substance (Streptococcus faecalis [5]; 2nd substance chlortetracycline): 48
- Phosphonomycin MIC in presence of ≤ MIC/4 of 2nd substance (Streptococcus faecalis [5]; 2nd substance erythromycin): 192
- MIC (Streptococcus faecalis [5]; Enterococcus faecalis, alone, read-out: Phosphonomycin MIC): 93.6 µg/mL
- Phosphonomycin MIC (Streptococcus faecalis [5]; alone, in µg/mL): 96 and 48
- Phosphonomycin MIC in presence of ≤ MIC/4 of 2nd substance (Pseudomonas aeruginosa; 2nd substance erythromycin): 12
- Phosphonomycin MIC in presence of ≤ MIC/4 of 2nd substance (Pseudomonas aeruginosa; 2nd substance novobiocin): 93.6
- Phosphonomycin MIC in presence of 2nd substance (Proteus vulgaris; 2nd substance chlortetracycline, MIC/2 instead of ≤ MIC/4): 24 µg/mL
- Phosphonomycin MIC in presence of ≤ MIC/4 of 2nd substance (Proteus vulgaris; 2nd substance erythromycin): 96
- Phosphonomycin MIC in presence of ≤ MIC/4 of 2nd substance (Proteus vulgaris; 2nd substance novobiocin): 6.8
- antagonism by the combination of antibiotics [6]: in no case was there any evidence of antagonism
- tests in which potentiating effect of phosphonomycin is observed [6]: eight of the twelve tests
- Phosphonomycin MIC in presence of MIC/4 of 2nd subst. (Staphylococcus aureus [7]): 15.6 µg/mL and 7.8 µg/mL
- % ED50 ([8]; alone): 100%
- s.c. ED50 ([8]; alone, therapy at 0 hour only, phosphonomycin as sodium salt): 1420 µg
- % ED50 [8, 10]: 88%
- s.c. ED50 [8, 10]: 1250 µg
- % ED50 [8, 11]: 195%
- s.c. ED50 [8, 11]: 2760 µg
- % ED50 (Escherichia coli 2017; chloramphenicol repeat test, 7 LD50, alone): 100%
- s.c. ED50 (Escherichia coli 2017; chloramphenicol repeat test, 7 LD50, alone, single dose at 0 hour, phosphonomycin as sodium salt): 276 µg
- % ED50 (Escherichia coli 2017; chloramphenicol repeat test, 7 LD50, chloramphenicol titrated, phosphonomycin constant 5): 2%
- % ED50 (Escherichia coli 2017; chloramphenicol repeat test, 7 LD50, chloramphenicol titrated, phosphonomycin constant 50): 19%
- % ED50 (Escherichia coli 2017; [12]): 33%
- s.c. ED50 (Escherichia coli 2017; [12]): 92 µg
- % ED50 (Escherichia coli 2017; [13]): 9%
- s.c. ED50 (Escherichia coli 2017; [13]): 26 µg
- % ED50 (Escherichia coli 2017; chloramphenicol test 1, 9 LD50, alone): 100%
- s.c. ED50 (Escherichia coli 2017; chloramphenicol test 1, 9 LD50, alone, single dose at 0 hour, phosphonomycin as sodium salt): 905 µg
- % ED50 (Escherichia coli 2017; chloramphenicol test 1, 9 LD50, chloramphenicol titrated, phosphonomycin constant 10): 1%
- % ED50 (Escherichia coli 2017; chloramphenicol test 1, 9 LD50, chloramphenicol titrated, phosphonomycin constant 100): 11%
- % ED50 (Escherichia coli 2017; [14]): 100%
- s.c. ED50 (Escherichia coli 2017; [14]): 905 µg
- % ED50 (Escherichia coli 2017; [15]): 55%
- s.c. ED50 (Escherichia coli 2017; [15]): 500 µg
- % ED50 (Escherichia coli 2017; tetracycline repeat test, 7 LD50, alone): 100%
- s.c. ED50 (Escherichia coli 2017; tetracycline repeat test, 7 LD50, alone, single dose at 0 hour, phosphonomycin as sodium salt): 350 µg
- % ED50 (Escherichia coli 2017; [16]): 108%
- s.c. ED50 (Escherichia coli 2017; [16]): 380 µg
- % ED50 (Escherichia coli 2017; [17]): 111%
- s.c. ED50 (Escherichia coli 2017; [17]): 390 µg
- % ED50 (Escherichia coli 2017; tetracycline repeat test, 7 LD50, tetracycline titrated, phosphonomycin constant 0.5): 2%
- % ED50 (Escherichia coli 2017; tetracycline repeat test, 7 LD50, tetracycline titrated, phosphonomycin constant 50): 14%
- % ED50 (Escherichia coli 2017; [18]): 100%
- % ED50, Combined % (Escherichia coli 2017; [18]): 100%
- s.c. ED50 (Escherichia coli 2017; tetracycline test 1, 9 LD50, alone, single dose at 0 hour, phosphonomycin as sodium salt): 1000 µg
- % ED50 (Escherichia coli 2017; [19]): 100%
- s.c. ED50 (Escherichia coli 2017; [19]): 1000 µg
- % ED50 (Escherichia coli 2017; [20]): 43%
- s.c. ED50 (Escherichia coli 2017; [20]): 427 µg
- % ED50 (Escherichia coli 2017; tetracycline test 1, 9 LD50, tetracycline titrated, phosphonomycin constant 5): .5%
- % ED50 (Escherichia coli 2017; tetracycline test 1, 9 LD50, tetracycline titrated, phosphonomycin constant 50): 5%
